The test system of one test is PAF biosynthesis. Put plainly: PAF biosynthesis inhibition (rat spleen microsomes, [3H]acetyl CoA / lyso PAF). Format: biochemical. To be noted: 10 μM, incubation 5-8 minutes. As for the experimental part:
(1) Product PAF was estimated after reaction by liquid scintillation counting of the dried chloroform phase.
(2) [^3 H]Acetyl Co A was used in place of [^14 C],
(3) Incubation (i.e., reaction) times were generally within the range of 5-8 minutes.
(4) Concentrations used were in 1 ml of reaction mixture as follows:
Rat spleen microisomes: 50-150 μg

A further test deals with rabbit platlets. Put plainly: aggregation of rabbit platelets (AC50). Format: cell-based. As to conditions: Oryctolagus cuniculus, Platelet, 50% aggregation, only compounds structurally similar to PAF, read-out: AC50 (concentration of the test compound to obtain 50% aggregation of rabbit platlets). The text has this: The results obtained and the compounds tested are set forth in Table I below wherein "% I" represents percent inhibition and "AC50 " represents the concentration of the test compound to obtain 50% aggregation of rabbit platlets. The AC50 results were obtained only for those compounds which are structurally similar to PAF.

“Sodium 2-(2-N-hexadecanoylaminoethyl)-2'-(2 -methylcarbonylaminoethyl)phosphate [Example 46]”: the “% I (percent inhibition), PAF biosynthesis inhibition” value (shortened to “% I (percent inhibition)”) with PAF biosynthesis is given as 90%. In the case of `CCCCCCCCCCCCCCCCOCC(CO)COP(=O)([O-])OCC[N+](C)(C)C` (stereo not drawn) [Example 17, 2-Hydroxymethyl-2-deoxy-3-O-hexadecylglycero-1-phosphocholine], in the test with rabbit platlets, the AC50 was 24000 nM. For the same compound, the “% I (percent inhibition)” value in the test on PAF biosynthesis is 20%. The matching figures for `CCCCCCCCCCCCCCCCOCC(CF)COP(=O)([O-])OCC[N+](C)(C)C` (stereo not drawn) [Example 16, 2-Deoxy-2-fluoromethyl-3-0-hexadecylglycero-1-phosphocholine]: 2200 nM and 30%. In the case of “3-Hexadecylsulfonaminopropyl-1-phosphorylcholine [Example 51]”, the “% I (percent inhibition)” value in the test on PAF biosynthesis turned out to be 34%. Regarding `CCCCCCCCCCCCCCCCOCC(C)(O)COP(=O)([O-])OCC[N+](C)(C)C` (stereo not drawn) [Example 12, 3-O-Hexadecyl-2-methylglycero-1-phosphorylcholine], the AC50 in the test with rabbit platlets was over 100000 nM. With `CCCCCCCCCCCCCCCCOCC(O)(CO)COP(=O)([O-])OCC[N+](C)(C)C` (stereo not drawn) [Example 18, 2-Hydroxymethyl-3-O-hexadecylglycero-1-phosphocholine], in the test with rabbit platlets, the AC50 turned out to be 38000 nM. In addition, the “% I (percent inhibition)” value with PAF biosynthesis stood at 82%.

As for “Sodium 2-(2-N-hexadecanoylaminoethyl)-2'-(2-methylsulfinylethyl)phosphate [Example 53]”, in the test with PAF biosynthesis, the “% I (percent inhibition)” value came out at 71%. Same read-out and setting: as for “3-Octadecylaminocarbonylaminopropyl-1-phosphorylcholine [Example 52]”, the figure is 74%. Take `C=C(COCCCCCCCCCCCCCCCC)COP(=O)([O-])OCC[N+](C)(C)C` [Example 13, 2-Hexadecyloxymethyl-2-propene-1-phosphorylcholine]: the AC50 in the test on rabbit platlets was found to be 1300 nM. Also, the “% I (percent inhibition)” value with PAF biosynthesis was 38%.

Take `CCCCCCCCCCCCCCCCOCC(O)(COC(C)=O)COP(=O)([O-])OCC[N+](C)(C)C` (stereo not drawn) [Example 15, 2-Acetoxymethyl-3-O-hexadecylglycero-1-phosphocholine]: the AC50 in the test on rabbit platlets is 70 nM. For the same compound, in the test on PAF biosynthesis, the “% I (percent inhibition)” value came to 71%.

Regarding `CCCCCCCCCCCCCCCCOCC(COC(C)=O)COP(=O)([O-])OCC[N+](C)(C)C` (stereo not drawn) [Example 14, 2-Acetoxymethyl-2-deoxy-3-O-hexadecylglycero-1-phosphocholine], the AC50 with rabbit platlets worked out at 340 nM. In the test with PAF biosynthesis, the “% I (percent inhibition)” value is listed as 36%.

With “3-Tetradecycloxycarbonylaminopropyl-2-phosphorylcholine [Example 50]”, the “% I (percent inhibition)” value in the test with PAF biosynthesis was determined as 65%.

Values taken from patent US4761404A, “Phospholipid analogs useful as PAF synthesis inhibitors” (Merck & Co., Inc., priority 1985, dated 1988).
